Data taken from paper PMC8870237, “Improved Multimodal Tumor Necrosis Imaging with IRDye800CW-DOTA Conjugated to an Albumin-Binding Domain” (Cancers, 2022).

Tests used:
[1] = system: 4T1-Luc2 tumor-bearing mice; experiment: Ex vivo biodistribution in 4T1-Luc2 tumor-bearing mice; design: species or system mouse; conditions: for Tumor to blood ratio / Tumor to muscle ratio: 4T1-Luc2 tumors; for Blood uptake / Bone marrow uptake / Bone uptake / Brain uptake / Colon uptake / Heart uptake / Kidneys uptake / Liver uptake / Lung uptake / Lymph nodes uptake / Muscle uptake / Pancreas uptake / Skin uptake / Small intestine uptake / Spleen uptake / 4T1-Luc2 Tumors uptake: ±SEM; for Blood uptake / Bone marrow uptake / Bone uptake / Brain uptake / Colon uptake / Heart uptake / Kidneys uptake / Liver uptake / Lung uptake / Lymph nodes uptake / Muscle uptake / Pancreas uptake / Skin uptake / Small intestine uptake / Spleen uptake: n = 4; for 4T1-Luc2 Tumors uptake: n = 8
Protocol: Female BALB/cAnNRj-nude mice (six to eight weeks old) were housed in ventilated cages in groups of four to six mice and were provided standard laboratory animal food pellets and water ad libitum. One week after arrival, tumor cells were injected bilaterally on the shoulders. Tumor growth was monitored three days per week with a caliper. All groups consisted of four mice with bilateral tumors.
The 4T1-Luc2 cells (1.0 × 10^5) suspended in 15 µL PBS were inoculated bilaterally in 16 mice in four groups of four animals each. […] First, FLI imaging was performed with a 730 nm excitation and 760 nm emission filter for 400 ms with 4 × 4 binning. Then, the mice received an intraperitoneal injection of D-luciferin (150 mg/kg) maintaining the position of the mice in the bed unaltered, and BLI imaging was performed with an open filter for 400 ms with 4 × 4 binning. Full body (head to tail base) SPECT images of the 5 cm axial field of view were obtained over a total scan time of 30 min, followed by a 2 min full-body CT. After imaging, the mice were euthanized for ex vivo analysis.
After the final imaging experiments, the mice were sacrificed by cervical dislocation, tumors and organs were collected, weighted, and activity was accurately quantified by γ-counting to determine radioactivity uptake in the percentage of injected dose per gram (%ID/g). After γ-counting, the tumors were frozen in liquid nitrogen and stored at −80 °C overnight. Adjacent cryosections (10 µm) were prepared of the tumor centers for autoradiography. The sections were stored at −20 °C for the radioactivity to decay, before 800 nm fluorescence imaging and histochemical dead cell staining.

[2] = system: 4T1-Luc2 cells; experiment: In vitro dead/alive cell binding assay (fluorescence and γ-counting); assay type: cell-based, mouse; conditions: indium-111 labeled, 100 nM, 2.5 MBq/nmol, EtOH-killed or alive 4T1-Luc2 cells, γ-counting
Protocol: The 4T1-Luc2 cells were cultured in RPMI-1640 medium containing 10% fetal bovine, penicillin (100 U/mL), and streptomycin ([…]) 37 °C under a humidified atmosphere with 5% CO2. The cells were seeded in 24 well plates (1 × 10^5 cells per well). The next day, the cells were killed with EtOH (70%, 50 μL) or kept alive and incubated for 30 min at 37 °C with 100 nM of the NACAs in culturing medium. The plate was then imaged on an Odyssey (Li-Cor, 800 nm laser intensity 5.0).
Similarly, these killed and alive cells were incubated with the indium-111 labeled NACAs (100 nM, 2.5 MBq/nmol) in culturing medium. The cells were washed with PBS and collected with NaOH (1.0 M) for γ-counting. These experiments were performed as triplicates.

[3] = system: EMT6-Luc2 tumors; experiment: Tumor uptake in EMT6-Luc2 tumor-bearing mice; assay type: in vivo, mouse; conditions: untreated, 24 h p.i., ±SEM
Protocol: The quadruple modality imaging procedure is illustrated in Figure S21. The tumor-bearing mice were injected with [^111In]3 (20 MBq, 2 nmol) in 200 µL PBS into the tail vein. The following day, the mice fasted for four hours before they were injected with [^18F]FDG (10 MBq, 200 µL) in PBS. At 24 h p.i. of [^111In]3 and 1 h p.i. of [^18F]FDG, FLI imaging was performed with a 730 nm excitation and 760 nm emission filter for 400 ms with 4 × 4 binning. Then, the mice received an intraperitoneal injection of D-luciferin (150 mg/kg) maintaining the position of the mice in the bed unaltered. During the onset of the bioluminescence signal, PET/SPECT imaging was performed of the tumors with a 2 cm axial field of view over a total scan time of 30 min, followed by a 2 min full-body CT. Finally, BLI imaging was performed with an open filter for 400 ms with 4 × 4 binning. Imaging was performed under isoflurane anesthesia whilst maintaining the body temperature constant. […]
After the final imaging experiments, the mice were sacrificed by cervical dislocation, tumors and organs were collected, weighted, and activity was accurately quantified by γ-counting to determine radioactivity uptake in the percentage of injected dose per gram (%ID/g). […] The sections were stored at −20 °C for the radioactivity to decay, before 800 nm fluorescence imaging and histochemical dead cell staining.

CC1(C)C(=CC=C2CCCC(C=CC3=[N+](CCCCCC(=O)NCCCC[C@H](NC(=O)CCCc4ccc(I)cc4)C(=O)NCc4ccc(CNC(=O)CN5CCN(CC(=O)[O-])CCN(CC(=O)[O-])CCN(CC(=O)[O-])CC5)cc4)c4ccc(S(=O)(=O)O)cc4C3(C)C)=C2Oc2ccc(S(=O)(=O)O)cc2)N(CCCCS(=O)(=O)O)c2ccc(S(=O)(=O)O)cc21.[111In+3] [[^111In]3]
excretion route ([1]; 4T1-Luc2 tumor-bearing mice, from biodistribution): predominately excreted via the renal tract | blood half-life ([1]; 4T1-Luc2 tumor-bearing mice, i.v.): 9 h | Tumor to blood ratio ([1]; 6 h p.i.): 0.91±0.05 | Tumor to muscle ratio ([1]; 6 h p.i.): 3.19±0.43 | Blood uptake ([1]; 6 h p.i., i.v.): 4.34±0.22 %ID/g | Bone marrow uptake ([1]; 6 h p.i., i.v.): 1.42±0.87 %ID/g | Bone uptake ([1]; 6 h p.i., i.v.): 1.63±0.16 %ID/g | Brain uptake ([1]; 6 h p.i., i.v.): 0.14±0.03 %ID/g | Colon uptake ([1]; 6 h p.i., i.v.): 1.60±0.13 %ID/g | Heart uptake ([1]; 6 h p.i., i.v.): 2.32±0.11 %ID/g | Kidneys uptake ([1]; 6 h p.i., i.v.): 6.04±1.13 %ID/g | Liver uptake ([1]; 6 h p.i., i.v.): 2.24±0.28 %ID/g | Lung uptake ([1]; 6 h p.i., i.v.): 3.29±0.25 %ID/g | Lymph nodes uptake ([1]; 6 h p.i., i.v.): 3.91±0.97 %ID/g | Muscle uptake ([1]; 6 h p.i., i.v.): 1.31±0.20 %ID/g | Pancreas uptake ([1]; 6 h p.i., i.v.): 1.33±0.13 %ID/g | Skin uptake ([1]; 6 h p.i., i.v.): 2.59±0.09 %ID/g | Small intestine uptake ([1]; 6 h p.i., i.v.): 0.93±0.07 %ID/g | Spleen uptake ([1]; 6 h p.i., i.v.): 1.87±0.18 %ID/g | 4T1-Luc2 Tumors uptake ([1]; 6 h p.i., i.v.): 3.94±0.19 %ID/g | Tumor to blood ratio ([1]; 24 h p.i.): 2.50 ± 0.20 | Tumor to muscle ratio ([1]; 24 h p.i.): 7.26±0.89 | Blood uptake ([1]; 24 h p.i., i.v.): 1.31±0.05 %ID/g | Bone uptake ([1]; 24 h p.i., i.v.): 0.93±0.13 %ID/g | Brain uptake ([1]; 24 h p.i., i.v.): 0.07±0.00 %ID/g | Colon uptake ([1]; 24 h p.i., i.v.): 0.70±0.07 %ID/g | Heart uptake ([1]; 24 h p.i., i.v.): 1.22±0.06 %ID/g | Liver uptake ([1]; 24 h p.i., i.v.): 1.20±0.01 %ID/g | Lung uptake ([1]; 24 h p.i., i.v.): 1.20±0.04 %ID/g | Lymph nodes uptake ([1]; 24 h p.i., i.v.): 2.42±0.18 %ID/g | Muscle uptake ([1]; 24 h p.i., i.v.): 0.46±0.03 %ID/g | Pancreas uptake ([1]; 24 h p.i., i.v.): 0.65±0.05 %ID/g | Skin uptake ([1]; 24 h p.i., i.v.): 1.83±0.29 %ID/g | Small intestine uptake ([1]; 24 h p.i., i.v.): 0.53±0.05 %ID/g | Spleen uptake ([1]; 24 h p.i., i.v.): 1.45±0.03 %ID/g | 4T1-Luc2 Tumors uptake ([1]; 24 h p.i., i.v.): 3.27±0.25 %ID/g | Tumor to blood ratio ([1]; 48 h p.i.): 4.54±0.45 | Tumor to muscle ratio ([1]; 48 h p.i.): 7.27±0.34 | Blood uptake ([1]; 48 h p.i., i.v.): 0.58±0.01 %ID/g | Bone uptake ([1]; 48 h p.i., i.v.): 0.74±0.04 %ID/g | Brain uptake ([1]; 48 h p.i., i.v.): 0.04±0.00 %ID/g | Colon uptake ([1]; 48 h p.i., i.v.): 0.37±0.02 %ID/g | Heart uptake ([1]; 48 h p.i., i.v.): 0.78±0.01 %ID/g | Kidneys uptake ([1]; 48 h p.i., i.v.): 8.31±0.96 %ID/g | Liver uptake ([1]; 48 h p.i., i.v.): 0.90±0.04 %ID/g | Lung uptake ([1]; 48 h p.i., i.v.): 0.76±0.03 %ID/g | Lymph nodes uptake ([1]; 48 h p.i., i.v.): 3.30±0.62 %ID/g | Muscle uptake ([1]; 48 h p.i., i.v.): 0.36±0.03 %ID/g | Pancreas uptake ([1]; 48 h p.i., i.v.): 0.48±0.04 %ID/g | Skin uptake ([1]; 48 h p.i., i.v.): 1.46±0.03 %ID/g | Small intestine uptake ([1]; 48 h p.i., i.v.): 0.33±0.01 %ID/g | Spleen uptake ([1]; 48 h p.i., i.v.): 1.19±0.07 %ID/g | 4T1-Luc2 Tumors uptake ([1]; 48 h p.i., i.v.): 2.62±0.23 %ID/g | Tumor to blood ratio ([1]; 72 h p.i.): 7.36±0.93 | Tumor to muscle ratio ([1]; 72 h p.i.): 9.10±1.58 | Blood uptake ([1]; 72 h p.i., i.v.): 0.31±0.03 %ID/g | Bone marrow uptake ([1]; 72 h p.i., i.v.): 2.25±0.65 %ID/g | Bone uptake ([1]; 72 h p.i., i.v.): 0.51±0.05 %ID/g | Brain uptake ([1]; 72 h p.i., i.v.): 0.03±0.00 %ID/g | Colon uptake ([1]; 72 h p.i., i.v.): 0.23±0.02 %ID/g | Heart uptake ([1]; 72 h p.i., i.v.): 0.63±0.02 %ID/g | Kidneys uptake ([1]; 72 h p.i., i.v.): 5.72±0.49 %ID/g | Liver uptake ([1]; 72 h p.i., i.v.): 0.83±0.04 %ID/g | Lung uptake ([1]; 72 h p.i., i.v.): 0.56±0.05 %ID/g | Lymph nodes uptake ([1]; 72 h p.i., i.v.): 2.39±0.25 %ID/g | Muscle uptake ([1]; 72 h p.i., i.v.): 0.26±0.03 %ID/g | Pancreas uptake ([1]; 72 h p.i., i.v.): 0.32±0.02 %ID/g | Skin uptake ([1]; 72 h p.i., i.v.): 1.52±0.09 %ID/g | Small intestine uptake ([1]; 72 h p.i., i.v.): 0.20±0.02 %ID/g | Spleen uptake ([1]; 72 h p.i., i.v.): 1.10±0.18 %ID/g | 4T1-Luc2 Tumors uptake ([1]; 72 h p.i., i.v.): 2.25±0.64 %ID/g | ex vivo colocalization with dead cells (autoradiography, NIR fluorescence, TUNEL) ([1]; adjacent sections of 4T1-Luc2 tumors): specific binding of the tracer to necrotic tumor regions | dead/alive cell binding, radioactivity [2]: increased as compared to [^111In]1 | tumor uptake of [111In]3 [3]: 2.81 ± 0.21 %ID/g
